Test results published in the NIST ThermoML archive (doi:10.1021/acs.jced.8b00132).
“And” between values parts separate entries of the source, which are not always exact repeats. Equal values may be shown once.

Settings: Gas

O=C(C(F)(F)C(F)(F)F)C(F)(C(F)(F)F)C(F)(F)F [dodecafluoro-2-methylpentan-3-one]
Settings	thermal conductivity
454.15 K, 782 kPa, transient hot wire	0.02353 W/m/K
454.15 K, 47000 kPa, transient hot wire	0.06263 W/m/K
454.17 K, 779 kPa, transient hot wire	0.02342 W/m/K
454.18 K, 46933 kPa, transient hot wire	0.06269 W/m/K and 0.06261 W/m/K
454.2 K, 169 kPa, hot wire	0.0226 W/m/K
454.2 K, 1365 kPa, transient hot wire	0.0246 W/m/K
454.21 K, 169 kPa, hot wire	0.02248 W/m/K
454.21 K, 1366 kPa, transient hot wire	0.02448 W/m/K
454.22 K, 47 kPa, hot wire	0.0225 W/m/K and 0.02246 W/m/K
454.23 K, 526 kPa, transient hot wire	0.02368 W/m/K
454.26 K, 526 kPa, transient hot wire	0.02374 W/m/K
454.32 K, 351 kPa, transient hot wire	0.02402 W/m/K
454.32 K, 354 kPa, transient hot wire	0.02406 W/m/K
454.33 K, 781 kPa, transient hot wire	0.02352 W/m/K
454.36 K, 1365 kPa, transient hot wire	0.02461 W/m/K
454.38 K, 1365 kPa, transient hot wire	0.02468 W/m/K
454.41 K, 524 kPa, transient hot wire	0.02367 W/m/K
454.41 K, 526 kPa, transient hot wire	0.02369 W/m/K
454.49 K, 780 kPa, transient hot wire	0.02364 W/m/K
454.5 K, 345 kPa, transient hot wire	0.02401 W/m/K
454.5 K, 348 kPa, transient hot wire	0.02403 W/m/K
454.5 K, 779 kPa, transient hot wire	0.02369 W/m/K
454.54 K, 1365 kPa, transient hot wire	0.02476 W/m/K
454.58 K, 524 kPa, transient hot wire	0.02372 W/m/K
454.6 K, 523 kPa, transient hot wire	0.02364 W/m/K
454.67 K, 776 kPa, transient hot wire	0.0236 W/m/K
454.68 K, 341 kPa, transient hot wire	0.02404 W/m/K
454.68 K, 343 kPa, transient hot wire	0.02408 W/m/K
454.68 K, 778 kPa, transient hot wire	0.02361 W/m/K
454.78 K, 524 kPa, transient hot wire	0.02371 W/m/K
454.79 K, 524 kPa, transient hot wire	0.02372 W/m/K
454.86 K, 776 kPa, transient hot wire	0.02365 W/m/K
454.87 K, 339 kPa, transient hot wire	0.02408 W/m/K
454.87 K, 774 kPa, transient hot wire	0.02365 W/m/K
454.88 K, 340 kPa, transient hot wire	0.02406 W/m/K
454.98 K, 523 kPa, transient hot wire	0.02378 W/m/K and 0.02375 W/m/K
455.07 K, 337 kPa, transient hot wire	0.02422 W/m/K
455.08 K, 338 kPa, transient hot wire	0.02415 W/m/K
472.48 K, 3077 kPa, transient hot wire	0.03434 W/m/K
472.49 K, 3077 kPa, transient hot wire	0.03339 W/m/K
472.51 K, 2894 kPa, transient hot wire	0.03274 W/m/K
472.53 K, 2894 kPa, transient hot wire	0.034 W/m/K
472.53 K, 3077 kPa, transient hot wire	0.034 W/m/K
472.55 K, 3077 kPa, transient hot wire	0.03381 W/m/K
472.57 K, 2711 kPa, transient hot wire	0.03198 W/m/K
472.58 K, 2894 kPa, transient hot wire	0.03316 W/m/K
472.59 K, 2711 kPa, transient hot wire	0.03186 W/m/K
472.59 K, 2894 kPa, transient hot wire	0.03275 W/m/K
472.59 K, 3077 kPa, transient hot wire	0.03373 W/m/K
472.6 K, 3077 kPa, transient hot wire	0.03356 W/m/K
472.62 K, 3291 kPa, transient hot wire	0.03462 W/m/K
472.63 K, 2711 kPa, transient hot wire	0.03247 W/m/K
472.64 K, 2711 kPa, transient hot wire	0.03224 W/m/K
472.64 K, 2894 kPa, transient hot wire	0.03315 W/m/K and 0.03273 W/m/K
472.65 K, 3077 kPa, transient hot wire	0.03407 W/m/K and 0.03386 W/m/K
472.67 K, 2504 kPa, transient hot wire	0.03029 W/m/K
472.67 K, 3291 kPa, transient hot wire	0.03475 W/m/K and 0.03505 W/m/K
472.68 K, 2504 kPa, transient hot wire	0.02998 W/m/K
472.68 K, 2894 kPa, transient hot wire	0.03347 W/m/K
472.7 K, 2711 kPa, transient hot wire	0.0322 W/m/K
472.7 K, 2712 kPa, transient hot wire	0.03222 W/m/K
472.7 K, 3078 kPa, transient hot wire	0.03422 W/m/K and 0.0347 W/m/K
472.7 K, 4062 kPa, transient hot wire	0.03638 W/m/K
472.71 K, 2894 kPa, transient hot wire	0.03401 W/m/K
472.71 K, 4063 kPa, transient hot wire	0.03625 W/m/K
472.73 K, 3291 kPa, transient hot wire	0.03502 W/m/K and 0.03525 W/m/K
472.73 K, 3605 kPa, transient hot wire	0.036 W/m/K
472.74 K, 3604 kPa, transient hot wire	0.03572 W/m/K
472.75 K, 2505 kPa, transient hot wire	0.03037 W/m/K
472.75 K, 2894 kPa, transient hot wire	0.0336 W/m/K
472.75 K, 4063 kPa, transient hot wire	0.03659 W/m/K
472.76 K, 2711 kPa, transient hot wire	0.03263 W/m/K
472.77 K, 2712 kPa, transient hot wire	0.03232 W/m/K
472.77 K, 2894 kPa, transient hot wire	0.03342 W/m/K
472.77 K, 4063 kPa, transient hot wire	0.0364 W/m/K
472.78 K, 3291 kPa, transient hot wire	0.03545 W/m/K
472.78 K, 3605 kPa, transient hot wire	0.03545 W/m/K
472.8 K, 4819 kPa, transient hot wire	0.03773 W/m/K
472.81 K, 2264 kPa, transient hot wire	0.02846 W/m/K
472.81 K, 2265 kPa, transient hot wire	0.02848 W/m/K
472.81 K, 4062 kPa, transient hot wire	0.03638 W/m/K
472.81 K, 4820 kPa, transient hot wire	0.03801 W/m/K
472.82 K, 2505 kPa, transient hot wire	0.03067 W/m/K and 0.03052 W/m/K
472.83 K, 2712 kPa, transient hot wire	0.03316 W/m/K
472.83 K, 3291 kPa, transient hot wire	0.03561 W/m/K
472.83 K, 4063 kPa, transient hot wire	0.03659 W/m/K
472.84 K, 2711 kPa, transient hot wire	0.03262 W/m/K
472.85 K, 3605 kPa, transient hot wire	0.03577 W/m/K
472.86 K, 3292 kPa, transient hot wire	0.03541 W/m/K
472.86 K, 3605 kPa, transient hot wire	0.0358 W/m/K
472.87 K, 2265 kPa, transient hot wire	0.02848 W/m/K
472.87 K, 4820 kPa, transient hot wire	0.03777 W/m/K
472.88 K, 4820 kPa, transient hot wire	0.03795 W/m/K
472.91 K, 4063 kPa, transient hot wire	0.03666 W/m/K
472.92 K, 4063 kPa, transient hot wire	0.03656 W/m/K
472.93 K, 3605 kPa, transient hot wire	0.03577 W/m/K
472.94 K, 4821 kPa, transient hot wire	0.03795 W/m/K
472.95 K, 4821 kPa, transient hot wire	0.03782 W/m/K
472.96 K, 2265 kPa, transient hot wire	0.02876 W/m/K
472.96 K, 4064 kPa, transient hot wire	0.03659 W/m/K
472.97 K, 2265 kPa, transient hot wire	0.02862 W/m/K
472.98 K, 4064 kPa, transient hot wire	0.0367 W/m/K
472.99 K, 3605 kPa, transient hot wire	0.03603 W/m/K
472.99 K, 3606 kPa, transient hot wire	0.0358 W/m/K
472.99 K, 5939 kPa, transient hot wire	0.03924 W/m/K
473.01 K, 4823 kPa, transient hot wire	0.03784 W/m/K
473.03 K, 4823 kPa, transient hot wire	0.038 W/m/K
473.06 K, 1890 kPa, transient hot wire	0.02666 W/m/K
473.06 K, 2265 kPa, transient hot wire	0.02868 W/m/K
473.06 K, 5939 kPa, transient hot wire	0.03956 W/m/K
473.07 K, 605 kPa, hot wire	0.02596 W/m/K
473.08 K, 606 kPa, hot wire	0.02604 W/m/K
473.08 K, 1889 kPa, transient hot wire	0.02628 W/m/K
473.08 K, 2265 kPa, transient hot wire	0.02867 W/m/K
473.08 K, 5937 kPa, transient hot wire	0.03959 W/m/K
473.1 K, 4824 kPa, transient hot wire	0.03789 W/m/K and 0.03779 W/m/K
473.11 K, 430 kPa, hot wire	0.0254 W/m/K
473.13 K, 429 kPa, hot wire	0.02498 W/m/K
473.14 K, 204 kPa, hot wire	0.0245 W/m/K and 0.02427 W/m/K
473.14 K, 5937 kPa, transient hot wire	0.03959 W/m/K and 0.03958 W/m/K
473.15 K, 1888 kPa, transient hot wire	0.0266 W/m/K
473.16 K, 2265 kPa, transient hot wire	0.02905 W/m/K
473.17 K, 607 kPa, hot wire	0.02579 W/m/K
473.17 K, 2265 kPa, transient hot wire	0.0291 W/m/K
473.18 K, 607 kPa, hot wire	0.02602 W/m/K
473.19 K, 7819 kPa, transient hot wire	0.04147 W/m/K
473.19 K, 49267 kPa, transient hot wire	0.06278 W/m/K
473.21 K, 47 kPa, hot wire	0.02404 W/m/K
473.21 K, 427 kPa, hot wire	0.02512 W/m/K
473.21 K, 49264 kPa, transient hot wire	0.06294 W/m/K
473.22 K, 426 kPa, hot wire	0.02501 W/m/K
473.22 K, 5937 kPa, transient hot wire	0.03959 W/m/K
473.23 K, 47 kPa, hot wire	0.02385 W/m/K
473.24 K, 203 kPa, hot wire	0.02435 W/m/K and 0.02438 W/m/K
473.24 K, 5937 kPa, transient hot wire	0.03993 W/m/K
473.26 K, 49261 kPa, transient hot wire	0.06261 W/m/K
473.26 K, 49266 kPa, transient hot wire	0.06275 W/m/K
473.27 K, 607 kPa, hot wire	0.02598 W/m/K and 0.02584 W/m/K
473.27 K, 1888 kPa, transient hot wire	0.02674 W/m/K
473.27 K, 49222 kPa, transient hot wire	0.06278 W/m/K
473.27 K, 49223 kPa, transient hot wire	0.06286 W/m/K
473.28 K, 47 kPa, hot wire	0.02405 W/m/K
473.28 K, 1888 kPa, transient hot wire	0.02686 W/m/K
473.28 K, 7819 kPa, transient hot wire	0.0414 W/m/K
473.29 K, 423 kPa, hot wire	0.02534 W/m/K
473.29 K, 5935 kPa, transient hot wire	0.03933 W/m/K
473.29 K, 7822 kPa, transient hot wire	0.04164 W/m/K
473.3 K, 47 kPa, hot wire	0.02401 W/m/K
473.3 K, 425 kPa, hot wire	0.02526 W/m/K
473.31 K, 5936 kPa, transient hot wire	0.03955 W/m/K
473.33 K, 202 kPa, hot wire	0.02458 W/m/K
473.33 K, 7818 kPa, transient hot wire	0.04161 W/m/K
473.33 K, 33947 kPa, transient hot wire	0.05683 W/m/K
473.33 K, 49216 kPa, transient hot wire	0.06307 W/m/K
473.34 K, 203 kPa, hot wire	0.02431 W/m/K
473.34 K, 33948 kPa, transient hot wire	0.05717 W/m/K
473.35 K, 47 kPa, hot wire	0.02449 W/m/K
473.35 K, 49221 kPa, transient hot wire	0.06272 W/m/K
473.36 K, 47 kPa, hot wire	0.02437 W/m/K
473.36 K, 606 kPa, hot wire	0.02606 W/m/K
473.36 K, 7821 kPa, transient hot wire	0.04152 W/m/K
473.37 K, 607 kPa, hot wire	0.0258 W/m/K
473.38 K, 420 kPa, hot wire	0.02536 W/m/K
473.38 K, 1887 kPa, transient hot wire	0.02681 W/m/K
473.38 K, 1913 kPa, transient hot wire	0.02688 W/m/K
473.38 K, 49255 kPa, transient hot wire	0.06283 W/m/K
473.39 K, 419 kPa, hot wire	0.0252 W/m/K
473.39 K, 1474 kPa, transient hot wire	0.02551 W/m/K
